Test results: PubChem BioAssay AID256 (DTP/NCI, 2004)
Where “and” joins values, the source holds several entries; their conditions need not be identical. Equal entries are not always repeated. Toxic doses and inconclusive results are not listed. How the source made its calls: active means survival T/C of 150% or more; inactive means T/C below 125% in these data.

Tested on: CD2F1 mice, L1210 leukemia ip, survival T/C
Assay: NCI In Vivo Anticancer Drug Screen. Data for tumor model L1210 Leukemia (intraperitoneal) in CD2F1 (CDF1) mice
Settings: higher = longer survival
Procedure, shortened: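 Each value reflects a quotient of treated over vehicle control outcomes in mice with a transplanted tumor.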

[1] = endpoint: mean survival time, dose: 100.0 mg/kg/injection, schedule: Q01DX001 (ip), vehicle: saline with Tween-80
[2] = endpoint: mean survival time, dose: 200.0 mg/kg/injection, schedule: Q01DX001 (ip), vehicle: saline with Tween-80
[3] = endpoint: mean survival time, dose: 400.0 mg/kg/injection, schedule: Q01DX001 (ip), vehicle: saline with Tween-80
[4] = endpoint: mean survival time, dose: 100.0 mg/kg/injection, schedule: Q01DX009 (ip), vehicle: saline with Tween-80
[5] = endpoint: mean survival time, dose: 200.0 mg/kg/injection, schedule: Q01DX009 (ip), vehicle: saline with Tween-80
[6] = endpoint: mean survival time, dose: 100.0 mg/kg/injection, schedule: Q01DX009 (ip), vehicle: saline
[7] = endpoint: mean survival time, dose: 200.0 mg/kg/injection, schedule: Q01DX009 (ip), vehicle: saline
[8] = endpoint: mean survival time, dose: 400.0 mg/kg/injection, schedule: Q01DX009 (ip), vehicle: saline

Measured: T/C

O=C(N/N=C\C(O)C(O)C(O)C(O)CO)c1ccccc1 (stereo not given)
inactive: endpoint: mean survival time, dose: 75.0 mg/kg/injection, schedule: Q01DX001 (ip), vehicle: saline 100 % of control | endpoint: mean survival time, dose: 150.0 mg/kg/injection, schedule: Q01DX001 (ip), vehicle: saline 104 % of control | endpoint: mean survival time, dose: 300.0 mg/kg/injection, schedule: Q01DX001 (ip), vehicle: saline 106 % of control

COc1ccc2c(c1O)-c1c(OC)c(OC)cc3c1C(C2)N(C)CC3 (stereo not given)
inactive: [1] 97 % of control | [2] 97 % of control | [3] 108 % of control

C=C(C)C(=O)OCC(O)C[N+](C)(C)C (stereo not given)
inactive: endpoint: mean survival time, dose: 50.0 mg/kg/injection, schedule: Q04DX003 (ip), vehicle: saline with Tween-80 96 % of control | endpoint: mean survival time, dose: 100.0 mg/kg/injection, schedule: Q04DX003 (ip), vehicle: saline with Tween-80 87 % of control

CCOC(=O)Nc1cc(NCc2ccccc2)c(N)c(N)n1
inactive: [1] 103 % of control | [2] 103 % of control

c1ccc(C2=NC3CCCCC3N=C2c2ccccc2)cc1 (stereo not given)
inactive: [4] 109 % of control | [5] 113 % of control | endpoint: mean survival time, dose: 400.0 mg/kg/injection, schedule: Q01DX009 (ip), vehicle: saline with Tween-80 103 % of control

N#CSCc1ccc(Cl)cc1Cl
inactive: endpoint: mean survival time, dose: 50.0 mg/kg/injection, schedule: Q01DX009 (ip), vehicle: saline with Tween-80 103 % of control | [4] 101 % of control | [5] 96 % of control

O=C(/C=C/c1ccccn1)c1ccccc1
inactive: endpoint: mean survival time, dose: 100.0 mg/kg/injection, schedule: Q04DX002 (ip), vehicle: Klucel (hydroxypropylcellulose) (HPC) 97 % of control | endpoint: mean survival time, dose: 200.0 mg/kg/injection, schedule: Q04DX002 (ip), vehicle: Klucel (hydroxypropylcellulose) (HPC) 104 % of control

CC(=O)Nc1ccc(CC#N)cc1
inactive: endpoint: mean survival time, dose: 5.0 mg/kg/injection, schedule: Q04DX003 (ip), vehicle: saline sonified 103 % of control | endpoint: mean survival time, dose: 10.0 mg/kg/injection, schedule: Q04DX003 (ip), vehicle: saline sonified 114 % of control | endpoint: mean survival time, dose: 20.0 mg/kg/injection, schedule: Q04DX003 (ip), vehicle: saline sonified 94 % of control

Cn1c(=O)c2[nH]c(-c3ccc(Cl)c(Cl)c3)nc2n(C)c1=O
inactive: endpoint: mean survival time, dose: 12.5 mg/kg/injection, schedule: Q01DX005 (ip), vehicle: other 101 % of control | endpoint: mean survival time, dose: 25.0 mg/kg/injection, schedule: Q01DX005 (ip), vehicle: other 92 % of control | endpoint: mean survival time, dose: 50.0 mg/kg/injection, schedule: Q01DX005 (ip), vehicle: other 92 % of control | endpoint: mean survival time, dose: 100.0 mg/kg/injection, schedule: Q01DX005 (ip), vehicle: other 87 % of control | endpoint: mean survival time, dose: 200.0 mg/kg/injection, schedule: Q01DX005 (ip), vehicle: other 89 % of control

Cc1cccc(NC2=NCCO2)c1
inactive: [1] 104 % of control | [2] 103 % of control

COc1ccc(NC(=O)Oc2ccc(Cl)cc2C)cc1
inactive: endpoint: mean survival time, dose: 100.0 mg/kg/injection, schedule: Q04DX002 (ip), vehicle: saline with Tween-80 91 % of control | endpoint: mean survival time, dose: 200.0 mg/kg/injection, schedule: Q04DX002 (ip), vehicle: saline with Tween-80 94 % of control | endpoint: mean survival time, dose: 400.0 mg/kg/injection, schedule: Q04DX002 (ip), vehicle: saline with Tween-80 91 % of control

COC(=O)c1ccncc1
inactive: [6] 102 % of control | [7] 108 % of control | [8] 100 % of control

CN(C)/C=C1\NC(=S)NC1=O
inactive: [1] 95 % of control | [2] 91 % of control | [3] 91 % of control

NCc1ccc(O)c(O)c1
inactive: endpoint: mean survival time, dose: 50.0 mg/kg/injection, schedule: Q01DX009 (ip), vehicle: saline 115 % of control | [6] 118 % of control and 124 % of control | [7] 123 % of control and 124 % of control | [8] 114 % of control | endpoint: mean survival time, dose: 800.0 mg/kg/injection, schedule: Q01DX009 (ip), vehicle: saline 118 % of control | endpoint: median survival time, dose: 28.13 mg/kg/injection, schedule: Q03HX024 (ip), vehicle: saline 111 % of control | endpoint: median survival time, dose: 56.25 mg/kg/injection, schedule: Q03HX024 (ip), vehicle: saline 110 % of control | endpoint: median survival time, dose: 300.0 mg/kg/injection, schedule: Q03HX024 (ip), vehicle: saline 110 % of control
